# Laboratory results reported in article PMC9430770 (Microbiology Spectrum, 2022).
# How the values were obtained:
# [1] = target: T1, recombinant C. albicans Eno1 (Candida albicans, UniProt P30575); experiment: Target protein competition experiment between BE and label-BE (TAMRA-N3 reporter); format: binding; settings: preincubation with 100 μM BE, then 10 μM label-BE; E. coli lysates with recombinant CaEno1
# T1 construct: the full-length ENO1 gene from C. albicans was cloned into the pET-21a (+) plasmid; made in house; host or cells: E. coli BL21(DE3)
# Description: FIG 2 Eno1 is a target of BE. (A) Schematic diagram of synthesis label-BE. Label-BE is synthesized by intermediate TPD-10a with benzyl bromide structure and triacetylated BE. (B) The molecular structure of label-BE. Label-BE contains a trifluoromethylphenyl diazo heterocyclic propylene group (marked by a red dotted line) as a photoaffinity group to enhance the binding of label-BE to its target proteins and an alkyne group (marked by a blue dotted line) connected with an azide group (from the TAMRA-N3 or biotin-N3) by a copper-catalyzed azide-alkyne cycloaddition. (C) The molecular structures of TAMRA-N3 and biotin-N3. […] After separation of SDS-PAGE, label-BE-targeted proteins were visualized by in-gel fluorescence scanning. The three fluorescent bands in lane 3 (indicated by red triangles) were cut out and pooled and then analyzed by LC-MS/MS. […] The brighter band in lane 3 (indicated by red triangle) was then cut out and analyzed by LC-MS/MS. […]
# Target protein competition experiments between BE and label-BE were performed as described previously ([51], [52]). […] The bands with changes in fluorescence brightness were then cut off and analyzed by LC-MS/MS; for labeling label-BE with biotin-N3, protein solutions were enriched with streptavidin-conjugated beads. […]
# [2] = test system: C. albicans eno1/eno1 mutant strain; experiment: Galleria mellonella infection model, eno1/eno1 strain; format: in vivo, Candida albicans; settings: G. mellonella, 10 mg/kg
# Protocol: To assess whether Eno1 is a therapeutic target of BE, we constructed a homozygous deletion strain for the ENO1 gene (eno1/eno1). We then investigated the difference in the antifungal efficacy of BE on the infections caused by the parent strain SN152 and the eno1/eno1 strain in the Galleria mellonella infection model. We divided the G. mellonella into 5 groups, with 10 larvae in each group. All 10 larvae died after a 24-h infection with the SN152 strain, while only 3 larvae died after 24 h when infected with the eno1/eno1 strain; the remaining larvae died within 7 days. Compared with the group infected with the parent strain, the survival time of the group infected with the eno1/eno1 strain was longer (P < 0.01) (Fig. 4A). […] The survival rate of larvae in the BE (10 mg/kg of body weight)-treated, SN152 strain-infected group was extended by 30%, compared with that in the group infected with the SN152 strain but without antifungal drug treatment (P < 0.001) (Fig. 4B). […] All 10 larvae in the BE-treated group died within 6 days, and all 10 larvae without BE treatment were killed within 7 days (Fig. 4C). However, FLC (10 mg/kg) can extend the survival rate of larvae infected by the eno1/eno1 strain by 60% (P < 0.01) (Fig. 4D) compared with the group infected with the eno1/eno1 strain without antifungal drug treatment.
# FIG 4 Eno1 acts as a therapeutic target of BE. […] Each curve represents a group of 10 larvae (n =10) monitored daily for survival for up to 10 days after infection. […]
# Virulence testing of C. albicans was done in Galleria mellonella as described previously ([56]). […] After growth in YPD media overnight at 30°C and 200 rpm, C. albicans SN152 cells or eno1/eno1 mutant cells were washed with PBS 3 times and diluted to the desired concentration (1 × 10^7 cells/mL) determined by counting with a hemacytometer. […] The death of G. mellonella was assessed daily and analyzed statistically by the Kaplan-Meier method (log-rank test).
# T1 sequence (P30575 whole entry): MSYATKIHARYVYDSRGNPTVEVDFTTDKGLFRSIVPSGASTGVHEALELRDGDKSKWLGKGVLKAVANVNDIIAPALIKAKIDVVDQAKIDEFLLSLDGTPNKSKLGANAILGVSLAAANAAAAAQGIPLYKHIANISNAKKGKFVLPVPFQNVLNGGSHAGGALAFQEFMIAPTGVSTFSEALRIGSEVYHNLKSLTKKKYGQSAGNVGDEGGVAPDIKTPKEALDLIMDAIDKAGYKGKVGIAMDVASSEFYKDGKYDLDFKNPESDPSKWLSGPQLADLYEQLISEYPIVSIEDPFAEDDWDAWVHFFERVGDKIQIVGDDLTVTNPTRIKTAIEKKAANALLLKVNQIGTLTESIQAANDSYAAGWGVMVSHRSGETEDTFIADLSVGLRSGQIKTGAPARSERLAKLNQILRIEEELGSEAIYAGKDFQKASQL
compound,measurement,setting,value
"O=c1cc(-c2ccccc2)oc2cc(O)c(O)c(O)c12 [BE, Baicalein]",competition with label-BE for the CaEno1 band (in-gel fluorescence),[1],remarkably reduce the fluorescent brightness
same,survival rate of larvae extended versus infected group without drug treatment,[2],no significant effect
same,time within which all 10 larvae died,[2]; eno1/eno1-infected,≤ 6 days
